Measurements taken from patent US9023789B2, “Amylin analogs and pharmaceutical compositions thereof” (Novo Nordisk A/S, priority 2012, dated 2015).
pIC50: −log10 of the molar value. In brackets after ≈: the same amount, converted by molar mass. Read-outs that look alike come from different tables or passages of the source. Numbered stars: 1 amine (or outer) side, 2 acyl side, 3 side chain; on linkers, the order of the positions; unused ones are H or OH. Bridge positions count the residues as written; N and C are the ends. Peptide text beside a SMILES is read from it. * marks the point of attachment. C20 diacid = O=C(O)CCCCCCCCCCCCCCCCCCC(=O)*; γGlu = O=C(O)[C@H](CCC(=O)[*:2])N[*:1]

Key:
[1] = molecular target: T1, rat calcitonin receptor (Rattus norvegicus, UniProt P32214); experiment: ASSAY (VIII) binding to the rat calcitonin receptor; conditions: Table 7, read-out: rCTR bind IC50
T1 construct: expressed in transfected cells; host or cells: BHK tk'ts 13 (transient, FuGENE 6), membranes
T1 sequence (P32214 25-479 isoform P32214-2 limits assumed): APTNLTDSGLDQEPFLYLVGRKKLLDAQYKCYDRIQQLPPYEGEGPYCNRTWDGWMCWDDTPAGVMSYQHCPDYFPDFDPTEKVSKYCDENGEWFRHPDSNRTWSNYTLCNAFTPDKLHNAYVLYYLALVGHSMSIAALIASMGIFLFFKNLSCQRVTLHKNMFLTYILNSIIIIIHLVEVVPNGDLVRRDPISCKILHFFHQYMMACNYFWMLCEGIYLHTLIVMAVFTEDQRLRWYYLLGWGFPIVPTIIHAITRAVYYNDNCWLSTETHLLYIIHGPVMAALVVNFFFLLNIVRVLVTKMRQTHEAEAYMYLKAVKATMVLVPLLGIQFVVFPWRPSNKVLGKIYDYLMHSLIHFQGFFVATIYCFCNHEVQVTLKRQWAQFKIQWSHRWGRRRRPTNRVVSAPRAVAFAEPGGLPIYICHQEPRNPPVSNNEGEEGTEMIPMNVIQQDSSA
How it was run: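 Receptor source: membranes from transiently transfected BHK tk′ts 13 cells expressing rat calcitonin receptor, collected roughly 48 hours after transfection.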

[2] = ASSAY (IV) determination of solubility; type: physicochemical
How it was run: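 UPLC read-out of polypeptide concentration after centrifugation. Samples: aqueous polypeptide stock ([…]) + 100 mM buffer 1:1, glycylglycine pH 3.0–5.0 or bistrispropane pH 6.0–8.0; 18 h, RT.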

[3] = molecular target: T2, human amylin 3(a) receptor (human calcitonin receptor + RAMP-3) in BHK570 cells (Homo sapiens, UniProt O60896+P30988); experiment: ASSAY (II)a functional assay, human amylin receptor (CRE luciferase); type: cell-based
T2 construct: expressed in transfected cells
How it was run: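 Readout is luminescence from a cAMP-responsive CRE-luc reporter, developed with LucLite for 30 min at room temperature. Cells were treated for 3 h at 37 °C in 10% FBS/DMEM buffered with 10 mM Hepes (pH 7.4).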

[4] = molecular target: T3, rat amylin receptor (rat calcitonin receptor + rat RAMP 3) (Rattus norvegicus, UniProt P32214+Q9JJ73); experiment: ASSAY (VI) binding to the rat amylin receptor; conditions: for pIC50: binding to rat amylin receptor, read-out: rAmylin-R bind IC50
T3 construct: expressed in transfected cells; host or cells: BHK tk'ts 13 (transient, FuGENE 6), membranes
T3 sequence (P32214 25-479 isoform P32214-2 limits assumed): T1 sequence (P32214 25-479 isoform P32214-2 limits assumed)
T3 sequence (Q9JJ73 23-147 partner): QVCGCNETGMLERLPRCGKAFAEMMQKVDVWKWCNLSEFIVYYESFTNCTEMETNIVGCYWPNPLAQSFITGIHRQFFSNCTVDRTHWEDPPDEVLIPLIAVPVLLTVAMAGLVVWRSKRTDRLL
How it was run: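 Membranes for this rat amylin receptor binding assay came from BHK tk′ts 13 cells. The cells were transiently transfected with rat calcitonin receptor using the FuGENE® 6 reagent from Roche, as the manufacturer recommends. The cells were collected approximately 48 hours after transfection, and membranes were then prepared.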

[5] = bistrispropane buffer, pH 6.5, read-out: Solubility pH 6.5 Concentration
[6] = bistrispropane buffer, pH 7.5, read-out: Solubility pH 7.5 Concentration
[7] = bistrispropane buffer, pH 6.0, read-out: Solubility pH 6.0 Concentration
[8] = bistrispropane buffer, pH 7.0, read-out: Solubility pH 7.0 Concentration
[9] = bistrispropane buffer, pH 8.0, read-out: Solubility pH 8.0 Concentration
[10] = glycylglycine buffer, pH 3.0, read-out: Solubility pH 3.0 Concentration
[11] = glycylglycine buffer, pH 4.0, read-out: Solubility pH 4.0 Concentration
[12] = glycylglycine buffer, pH 5.0, read-out: Solubility pH 5.0 Concentration
[13] = hCTR funct. EC50 divided by hAmylin-R funct. EC50
[14] = hCTR funct. EC50 over hAmylin-R funct. EC50
[15] = human functional selectivity: hCTR funct. EC50 / hAmylin-R funct. EC50
[16] = Table 7, rat binding selectivity, rCTR IC50 / rAmylin-R IC50
[17] = Table 7a (preferred compounds), rat binding selectivity, rCTR IC50 / rAmylin-R IC50
[18] = ratio of rCTR bind IC50 to rAmylin-R bind IC50

T2 sequence (O60896 24-148): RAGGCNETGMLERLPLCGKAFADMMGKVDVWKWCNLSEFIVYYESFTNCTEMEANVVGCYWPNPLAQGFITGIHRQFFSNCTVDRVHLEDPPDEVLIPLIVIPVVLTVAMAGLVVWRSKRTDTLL
T2 sequence (P30988 25-474): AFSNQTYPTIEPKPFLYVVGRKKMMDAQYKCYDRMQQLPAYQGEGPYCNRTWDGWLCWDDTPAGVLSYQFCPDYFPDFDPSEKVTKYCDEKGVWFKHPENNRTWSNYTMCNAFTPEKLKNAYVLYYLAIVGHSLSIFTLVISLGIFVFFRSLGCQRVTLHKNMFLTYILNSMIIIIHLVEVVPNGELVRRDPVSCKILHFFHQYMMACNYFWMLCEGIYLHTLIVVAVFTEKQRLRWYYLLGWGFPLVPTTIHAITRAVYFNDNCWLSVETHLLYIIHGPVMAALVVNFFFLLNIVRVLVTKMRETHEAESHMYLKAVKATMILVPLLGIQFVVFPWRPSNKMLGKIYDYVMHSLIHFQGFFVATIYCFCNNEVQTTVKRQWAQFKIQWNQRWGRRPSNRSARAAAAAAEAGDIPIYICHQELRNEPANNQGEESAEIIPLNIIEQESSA

Row | pIC50 [1] | solubility at 18 h [2, 5] | solubility at 18 h [2, 6] | solubility at 18 h [2, 7] | solubility at 18 h [2, 8] | solubility at 18 h [2, 9] | solubility at 18 h [2, 10] | solubility at 18 h [2, 11] | solubility at 18 h [2, 12] | Ratio hCT/hAmylin funct. [3, 13] | Ratio hCT/hAmylin funct. [3, 14] | Ratio hCT/hAmylin funct. [3, 15] | pIC50 ([4]; Table 7) | Ratio rCT/rAmylin binding [4, 16] | Ratio rCT/rAmylin binding [4, 17] | Ratio rCT/rAmylin binding [4, 18] | Solubility pH 6.5 Concentration ([2]; pH 6.5 (Table 9a)) | Solubility pH 7.0 Concentration ([2]; pH 7.0 (Table 9a)) | SMILES
1 | 7.53 | ≥ 200 µM | ≥ 200 µM | ≥ 200 µM | ≥ 200 µM | ≥ 200 µM | ≥ 200 µM | ≥ 200 µM | ≥ 200 µM | 36.9 | 36.9 | 36.9 | 9.41 | 76.3 | 76.3 | 76.3 | – | – | CC[C@H](C)[C@H](NC(=O)[C@H](C)NC(=O)CNC(=O)[C@H](Cc1ccccc1)NC(=O)[C@H](CC(N)=O)NC(=O)[C@@H]1CCCN1C(=O)[C@H](CO)NC(=O)[C@H](CO)NC(=O)[C@H](Cc1c[nH]cn1)NC(=O)[C@H](CCCNC(=N)N)NC(=O)[C@H](CC(C)C)NC(=O)[C@H](Cc1ccccc1)NC(=O)[C@H](CC(N)=O)NC(=O)[C@H](C)NC(=O)[C@H](CC(C)C)NC(=O)[C@H](CCCNC(=N)N)NC(=O)[C@H](CCC(N)=O)NC(=O)[C@@H](NC(=O)[C@H](C)NC(=O)[C@@H]1CSSC[C@H](NC(=O)[C@@H](N)CCCCNC(=O)COCCOCCNC(=O)CCCCCCCCCCCCCCCCCCC(=O)O)C(=O)N[C@@H](CC(N)=O)C(=O)N[C@@H]([C@@H](C)O)C(=O)N[C@@H](C)C(=O)N[C@@H]([C@@H](C)O)C(=O)N1)[C@@H](C)O)C(=O)N1CCC[C@H]1C(=O)N[C@@H](CO)C(=O)N[C@@H](CO)C(=O)N[C@H](C(=O)N[C@@H](CC(N)=O)C(=O)N[C@H](C(=O)NCC(=O)N[C@@H](Cc1c[nH]cn1)C(=O)N[C@@H](CC(N)=O)C(=O)N[C@H](C(=O)N[C@@H](Cc1ccc(O)cc1)C(N)=O)[C@@H](C)O)C(C)C)[C@@H](C)O [Example 91]
2 | 6.98 | ≥ 200 µM | ≥ 200 µM | ≥ 200 µM | ≥ 200 µM | ≥ 200 µM | ≥ 200 µM | ≥ 200 µM | ≥ 200 µM | 28.0 | 28.0 | 28.0 | 9.18 | 156.4 | 156.4 | 156.4 | – | – | CC[C@H](C)[C@H](NC(=O)[C@H](C)NC(=O)CNC(=O)[C@H](Cc1ccccc1)NC(=O)[C@H](CC(N)=O)NC(=O)[C@@H]1CCCN1C(=O)[C@H](CO)NC(=O)[C@H](CO)NC(=O)[C@H](Cc1c[nH]cn1)NC(=O)[C@H](CCCNC(=N)N)NC(=O)[C@H](CC(C)C)NC(=O)[C@H](Cc1ccccc1)NC(=O)[C@H](Cc1c[nH]cn1)NC(=O)[C@H](C)NC(=O)[C@H](CC(C)C)NC(=O)[C@H](CCCNC(=N)N)NC(=O)[C@H](CCC(N)=O)NC(=O)[C@@H](NC(=O)[C@H](C)NC(=O)[C@@H]1CSSC[C@H](NC(=O)[C@@H](N)CCCCNC(=O)CC[C@H](NC(=O)CC[C@H](NC(=O)CCCCCCCCCCCCCCCCCCC(=O)O)C(=O)O)C(=O)O)C(=O)N[C@@H](CC(N)=O)C(=O)N[C@@H]([C@@H](C)O)C(=O)N[C@@H](C)C(=O)N[C@@H]([C@@H](C)O)C(=O)N1)[C@@H](C)O)C(=O)N1CCC[C@H]1C(=O)N[C@@H](CO)C(=O)N[C@@H](CO)C(=O)N[C@H](C(=O)N[C@@H](CC(N)=O)C(=O)N[C@H](C(=O)NCC(=O)N[C@@H](CO)C(=O)N[C@@H](CC(N)=O)C(=O)N[C@H](C(=O)N[C@@H](Cc1ccc(O)cc1)C(N)=O)[C@@H](C)O)C(C)C)[C@@H](C)O [Example 92]
3 | 7.58 | ≥ 200 µM | ≥ 200 µM | ≥ 200 µM | ≥ 200 µM | ≥ 200 µM | ≥ 200 µM | ≥ 200 µM | ≥ 200 µM | 6.4 | 6.4 | 6.4 | 9.21 | 42.8 | 42.8 | 42.8 | – | – | CC[C@H](C)[C@H](NC(=O)[C@H](C)NC(=O)CNC(=O)[C@H](Cc1ccccc1)NC(=O)[C@H](CC(N)=O)NC(=O)[C@@H]1CCCN1C(=O)[C@H](CO)NC(=O)[C@H](CO)NC(=O)[C@H](Cc1c[nH]cn1)NC(=O)[C@H](CCCNC(=N)N)NC(=O)[C@H](CC(C)C)NC(=O)[C@H](Cc1ccccc1)NC(=O)[C@H](CCC(=O)O)NC(=O)[C@H](C)NC(=O)[C@H](CC(C)C)NC(=O)[C@H](CCCNC(=N)N)NC(=O)[C@H](CCC(N)=O)NC(=O)[C@@H](NC(=O)[C@H](C)NC(=O)[C@@H]1CSSC[C@H](NC(=O)[C@H](CCCCN)NC(=O)CC[C@H](NC(=O)CCCCCCCCCCCCCCCCCCC(=O)O)C(=O)O)C(=O)N[C@@H](CC(N)=O)C(=O)N[C@@H]([C@@H](C)O)C(=O)N[C@@H](C)C(=O)N[C@@H]([C@@H](C)O)C(=O)N1)[C@@H](C)O)C(=O)N1CCC[C@H]1C(=O)N[C@@H](CO)C(=O)N[C@@H](CO)C(=O)N[C@H](C(=O)N1CCC[C@H]1C(=O)N[C@H](C(=O)NCC(=O)N[C@@H](CO)C(=O)N[C@@H](CC(N)=O)C(=O)N[C@H](C(=O)N[C@@H](Cc1ccc(O)cc1)C(N)=O)[C@@H](C)O)C(C)C)[C@@H](C)O [Example 31] ({C20 diacid-γGlu}-KCNTATCATQRLAEFLRHSSPNFGAIPSSTPVGSNTY-NH2; disulfide 2-7 (inferred))
4 | 6.80 | ≥ 200 µM | 88 µM (≈ 415 µg/mL) | ≥ 200 µM | ≥ 200 µM | 43 µM (≈ 203 µg/mL) | ≥ 200 µM | ≥ 200 µM | ≥ 200 µM | 33.0 | 33.0 | 33.0 | 8.65 | 71.1 | 71.1 | 71.1 | ≧200 μM | ≧200 μM | CC[C@H](C)[C@H](NC(=O)[C@H](C)NC(=O)CNC(=O)[C@H](Cc1ccccc1)NC(=O)[C@H](CC(N)=O)NC(=O)[C@@H]1CCCN1C(=O)[C@H](CO)NC(=O)[C@H](CO)NC(=O)[C@H](Cc1c[nH]cn1)NC(=O)[C@H](CCCNC(=N)N)NC(=O)[C@H](CC(C)C)NC(=O)[C@H](Cc1ccccc1)NC(=O)[C@H](CC(N)=O)NC(=O)[C@H](C)NC(=O)[C@H](CC(C)C)NC(=O)[C@H](CCCNC(=N)N)NC(=O)[C@H](CCC(N)=O)NC(=O)[C@@H](NC(=O)[C@H](C)NC(=O)[C@@H]1CSSC[C@H](NC(=O)[C@@H](N)CCCCNC(=O)COCCOCCNC(=O)COCCOCCNC(=O)CC[C@H](NC(=O)CCCCCCCCCCCCCCCCCCC(=O)O)C(=O)O)C(=O)N[C@@H](CC(N)=O)C(=O)N[C@@H]([C@@H](C)O)C(=O)N[C@@H](C)C(=O)N[C@@H]([C@@H](C)O)C(=O)N1)[C@@H](C)O)C(=O)N1CCC[C@H]1C(=O)N[C@@H](CO)C(=O)N[C@@H](CO)C(=O)N[C@H](C(=O)N[C@@H](CC(N)=O)C(=O)N[C@H](C(=O)NCC(=O)N[C@@H](Cc1c[nH]cn1)C(=O)N[C@@H](CC(N)=O)C(=O)N[C@H](C(=O)N[C@@H](Cc1ccc(O)cc1)C(N)=O)[C@@H](C)O)C(C)C)[C@@H](C)O [Example 97]
